The values below come from patent publication EP4678638A1, “NEW E3 UBIQUITIN LIGASE LIGAND, PROTEIN DEGRADATION AGENT AND USE THEREOF” (priority 2023, dated 2024).

As usually defined, the inhibition is the share of the control response that was lost under treatment.

The target in experiment [1] is T1, human Cereblon WT GST-tagged protein (Homo sapiens, UniProt Q96SW2).
T1 construct: purchased CISBIO 64BDCRBNPEH
Kind of experiment: CRBN binding, HTRF (CEREBLON BINDING kit). Particulars: Table II-2, CRBN binding screening, HTRF; for inhibition at 0.5 µM: read-out: Inhibition rate (%) at 0.5µM; for inhibition at 2 µM: read-out: Inhibition rate (%) at 2 µM. In a few lines: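 After 3 h at room temperature, emission at 665 and 620 nm was measured in a homogeneous time-resolved fluorescence format. Compounds competed with a Thalidomide-Re probe for GST-tagged wild-type human CRBN, which was labelled with a Eu anti-GST antibody.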
On the technique in general: Time-resolved FRET reads energy transfer from a long-lived donor to a nearby acceptor.

Experiment [2] deals with T2, IRAK4 (Homo sapiens, UniProt Q9NWZ3).
T2 construct: evaluate the effects of the compounds of the present disclosure on the expression of target proteins in cells; endogenous in cells; host or cells: hPBMC
T2 sequence (Q9NWZ3 1-460): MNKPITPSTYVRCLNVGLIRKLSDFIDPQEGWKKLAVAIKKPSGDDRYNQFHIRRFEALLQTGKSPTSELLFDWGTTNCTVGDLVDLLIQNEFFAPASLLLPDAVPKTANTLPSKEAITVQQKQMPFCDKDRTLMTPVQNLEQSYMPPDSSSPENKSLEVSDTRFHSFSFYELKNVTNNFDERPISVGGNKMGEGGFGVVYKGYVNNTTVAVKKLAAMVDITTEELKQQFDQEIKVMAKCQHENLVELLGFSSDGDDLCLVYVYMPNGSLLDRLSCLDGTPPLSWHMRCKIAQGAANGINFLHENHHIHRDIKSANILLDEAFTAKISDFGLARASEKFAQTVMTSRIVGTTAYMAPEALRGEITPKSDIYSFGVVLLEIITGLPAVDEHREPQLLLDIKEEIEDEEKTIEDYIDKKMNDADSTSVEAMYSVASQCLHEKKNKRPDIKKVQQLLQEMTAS
Kind of experiment: Western blot degradation of IRAK4 (hPBMC). Particulars: Table D1. It counts as cell-based. The protocol: Conventional Western blot assay was performed to evaluate the effects of the compounds of the present disclosure on the expression of target proteins in cells.
(1) Cell Seeding and Protein Harvesting: The selected cells were processed according to the cell seeding procedure and protein harvesting procedure in Table III-2. Table III-2 Cell Seeding and Protein Harvesting Procedures
(2) To the collected supernatant, 5X SDS sample loading buffer was added, followed by denaturation at 95°C for 5 minutes. The denatured samples were then separated by SDS-PAGE electrophoresis on a polyacrylamide gel. Proteins were transferred to a nitrocellulose membrane (0.45 µm NC membrane), blocked with blocking buffer at room temperature for 1 hour, and subjected to antibody incubation and development procedures according to the antibody manufacturer's instructions (Cell Signaling Technology).
Half-Maximal Degradation Concentration value (the drug concentration required for degrading proteins by 50%, abbreviated as DC50) reads method: comparing the grayscale values of Western blot bands from drug-treated samples with those from blank DMSO-treated controls, and identifying the drug concentration range at which the grayscale value is half that of the DMSO-treated control bands.
DC50 values can be calculated using ImageJ software to measure grayscale values of Western blot bands from drug-treated samples. The concentration-response curve is fitted to estimate the drug concentration corresponding to half the grayscale value.
Target protein remaining (%) refers to the percentage of target protein remaining in hPBMC cells after treatment with protein degrader compounds.
Calculation method for target protein remaining (%): Use ImageJ software to measure grayscale values of Western blot bands from drug (protein degrader)-treated samples. The grayscale value of drug-treated bands is divided by that of internal control protein bands, and the resulting quotient is normalized to obtain the relative percentage of remaining target protein after protein degrader treatment.
Target protein degradation rate (%) = 100% - target protein remaining (%).
For orientation: Immunoblotting shows a protein as a band on a membrane.

T1 sequence (Q96SW2 whole entry): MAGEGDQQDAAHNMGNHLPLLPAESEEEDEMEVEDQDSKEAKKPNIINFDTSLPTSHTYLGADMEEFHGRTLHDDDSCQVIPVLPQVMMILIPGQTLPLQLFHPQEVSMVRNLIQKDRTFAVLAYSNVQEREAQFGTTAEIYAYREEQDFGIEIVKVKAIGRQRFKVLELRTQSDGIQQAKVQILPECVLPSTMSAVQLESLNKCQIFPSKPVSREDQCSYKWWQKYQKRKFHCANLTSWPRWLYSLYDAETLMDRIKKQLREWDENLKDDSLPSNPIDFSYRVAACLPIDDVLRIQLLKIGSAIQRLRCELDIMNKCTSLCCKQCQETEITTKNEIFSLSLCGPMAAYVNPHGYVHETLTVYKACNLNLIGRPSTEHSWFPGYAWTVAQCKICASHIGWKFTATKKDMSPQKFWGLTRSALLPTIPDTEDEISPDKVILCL

As for `CC(C)(O)c1cc2nn(C3CCN(Cc4cncc(C5CCC(=O)NC5=O)c4)CC3)cc2cc1NC(=O)c1cccc(C(F)(F)F)n1` (stereo not shown) [GT-07543, N-(2-(1-((5-(2,6-dioxopiperidin-3-yl)pyridin-3-yl)methyl)piperidin-4-yl)-6-(2-hydroxypropan-2-yl)-2H-indazol-5-yl)-6-(trifluoromethyl)picolinamide], the inhibition at 0.5 µM in experiment [1] (at 0.5µM) was in the range of 30 to 40%. Also, the inhibition at 2 µM in experiment [1] (at 2 µM) was 60 to 80%. Besides, the “Degradation of substrate protein IRAK4 (substrate protein remaining %)” value (“Degradation … (substrate protein remaining %)” below) in experiment [2] is “A (A is defined as 0% ≤ substrate protein remaining % ≤ 80%)”.
Turning to `CC(C)(O)c1cc2nc(C3CCN(Cc4cncc(C5CCC(=O)NC5=O)c4)CC3)sc2cc1NC(=O)c1cccc(C(F)(F)F)n1` (stereo not shown) [GT-07624, N-(2-(1-((5-(2,6-dioxopiperidin-3-yl)pyridin-3-yl)methyl)piperidin-4-yl)-5-(2-hydroxypropan-2-yl)benzo[d]thiazol-6-yl)-6-(trifluoromethyl)picolinamide], in experiment [1] (at 0.5µM), the inhibition at 0.5 µM fell in the range of 20 to 30%. The inhibition at 2 µM in experiment [1] (at 2 µM) is 60 to 80%. In addition, the “Degradation … (substrate protein remaining %)” value in experiment [2] is recorded as “A (A is defined as 0% ≤ substrate protein remaining % ≤ 80%)”.
In the same order, the values of `CC(C)Nc1cc(-n2ccc3cc(C#N)cnc32)ncc1C(=O)NC1CCN(Cc2cc(C3CCC(=O)NC3=O)cnc2F)CC1` (stereo not shown) [GT-07544, 6-(5-cyano-1H-pyrrolo[2,3-b]pyridin-1-yl)-N-(1-((5-(2,6-dioxopiperidin-3-yl)-2-fluoropyridin-3-yl)methyl)piperidin-4-yl)-4-(isopropylamino)nicotinamide] are 53 to 60%, 80 to 100% and “A (A is defined as 0% ≤ substrate protein remaining % ≤ 80%)”.
On to `COc1cc2nn(C3CCN(Cc4cncc(C5CCC(=O)NC5=O)c4)CC3)cc2cc1NC(=O)c1cccc(C(F)(F)F)c1` (stereo not shown) [GT-07419, N-(2-(1-((5-(2,6-dioxopiperidin-3-yl)pyridin-3-yl)methyl)piperidin-4-yl)-6-methoxy-2H-indazol-5-yl)-3-(trifluoromethyl)benzamide], for which, in experiment [1] (at 0.5µM), the inhibition at 0.5 µM lay within 20 to 30%. Besides, the inhibition at 2 µM in experiment [1] (at 2 µM) was 53 to 60%. For the same compound, in experiment [2], the “Degradation … (substrate protein remaining %)” value is listed as “A (A is defined as 0% ≤ substrate protein remaining % ≤ 80%)”.
For the compound `CC(C)(O)c1cc2nc(C3CCN(Cc4ccc(C5CCC(=O)NC5=O)cn4)CC3)sc2cc1NC(=O)c1cccc(C(F)(F)F)n1` (stereo not shown) [GT-07623, N-(2-(1-((5-(2,6-dioxopiperidin-3-yl)pyridin-2-yl)methyl)piperidin-4-yl)-5-(2-hydroxypropan-2-yl)benzo[d]thiazol-6-yl)-6-(trifluoromethyl)picolinamide], the “Inhibition rate (%) at 0.5µM” value in experiment [1] (at 0.5µM) is “a2 (20% < a2 ≤ 30%)”. The “Inhibition rate (%) at 2 µM” value in experiment [1] (at 2 µM) is recorded as “a6 (60% < a6 ≤ 80%)”. Moreover, the “Degradation … (substrate protein remaining %)” value in experiment [2] was “A (A is defined as 0% ≤ substrate protein remaining % ≤ 80%)”.
`CC(C)(O)c1cc2nc(C3CCN(Cc4cncc(N5CCC(=O)NC5=O)c4)CC3)oc2cc1NC(=O)c1cccc(C(F)(F)F)n1` [GT-07628, N-(2-(1-((5-(2,4-dioxotetrahydropyrimidin-1(2H)-yl)pyridin-3-yl)methyl)piperidin-4-yl)-5-(2-hydroxypropan-2-yl)benzo[d]oxazol-6-yl)-6-(trifluoromethyl)picolinamide]: the inhibition at 0.5 µM in experiment [1] (at 0.5µM) lay in the range of 20 to 30%. Also, the inhibition at 2 µM in experiment [1] (at 2 µM) lay in the range of 60 to 80%. The “Degradation … (substrate protein remaining %)” value in experiment [2] is on record as “A (A is defined as 0% ≤ substrate protein remaining % ≤ 80%)”.
With `COc1cc2nn(C3CCN(Cc4cncc(N5CCC(=O)NC5=O)c4)CC3)cc2cc1NC(=O)c1cccc(C(F)(F)F)n1` [GT-07533, N-(2-(1-((5-(2,4-dioxotetrahydropyrimidin-1(2H)-yl)pyridin-3-yl)methyl)piperidin-4-yl)-6-methoxy-2H-indazol-5-yl)-6-(trifluoromethyl)picolinamide], the inhibition at 0.5 µM in experiment [1] (at 0.5µM) is 10 to 20%. The inhibition at 2 µM in experiment [1] (at 2 µM) fell in the range of 53 to 60%. In addition, in experiment [2], the “Degradation … (substrate protein remaining %)” value was “A (A is defined as 0% ≤ substrate protein remaining % ≤ 80%)”.
In the case of `COc1cc2nn(C3CCN(Cc4cc(C5CCC(=O)NC5=O)cnc4F)CC3)cc2cc1NC(=O)c1cccc(C(F)(F)F)n1` (stereo not shown) [GT-07549, N-(2-(1-((5-(2,6-dioxopiperidin-3-yl)-2-fluoropyridin-3-yl)methyl)piperidin-4-yl)-6-methoxy-2H-indazol-5-yl)-6-(trifluoromethyl)picolinamide], in experiment [1] (at 0.5µM), the inhibition at 0.5 µM fell in the range of 40 to 53%. The inhibition at 2 µM in experiment [1] (at 2 µM) lay in the range of 80 to 100%. Further, the “Degradation … (substrate protein remaining %)” value in experiment [2] is “A (A is defined as 0% ≤ substrate protein remaining % ≤ 80%)”.
In the same order, the values of `COc1cc2nn(C3CCN(Cc4ccc(C5CCC(=O)NC5=O)cn4)CC3)cc2cc1NC(=O)c1cccc(C(F)(F)F)c1` (stereo not shown) [GT-07417, N-(2-(1-((5-(2,6-dioxopiperidin-3-yl)pyridin-2-yl)methyl)piperidin-4-yl)-6-methoxy-2H-indazol-5-yl)-3-(trifluoromethyl)benzamide] are 30 to 40%, 60 to 80% and “A (A is defined as 0% ≤ substrate protein remaining % ≤ 80%)”.
For `CC(C)(O)c1cc2nc(C3CCN(Cc4ccc(C5CCC(=O)NC5=O)cn4)CC3)oc2cc1NC(=O)c1cccc(C(F)(F)F)n1` (stereo not shown) [GT-07763, N-(2-(1-((5-(2,6-dioxopiperidin-3-yl)pyridin-2-yl)methyl)piperidin-4-yl)-5-(2-hydroxypropan-2-yl)benzo[d]oxazol-6-yl)-6-(trifluoromethyl)picolinamide], in experiment [1] (at 0.5µM), the inhibition at 0.5 µM lay within 40 to 53%. Also, the inhibition at 2 µM in experiment [1] (at 2 µM) was 60 to 80%. The “Degradation … (substrate protein remaining %)” value in experiment [2] was “A (A is defined as 0% ≤ substrate protein remaining % ≤ 80%)”.
`CC(C)(O)c1cc2nc(C3CCN(Cc4cc(N5CCC(=O)NC5=O)ncc4F)CC3)oc2cc1NC(=O)c1cccc(C(F)(F)F)n1` [GT-07626, N-(2-(1-((2-(2,4-dioxotetrahydropyrimidin-1(2H)-yl)-5-fluoropyridin-4-yl)methyl)piperidin-4-yl)-5-(2-hydroxypropan-2-yl)benzo[d]oxazol-6-yl)-6-(trifluoromethyl)picolinamide]: the inhibition at 0.5 µM in experiment [1] (at 0.5µM) lay in the range of 20 to 30%. Further, the inhibition at 2 µM in experiment [1] (at 2 µM) was 60 to 80%. In addition, in experiment [2], the “Degradation … (substrate protein remaining %)” value is listed as “A (A is defined as 0% ≤ substrate protein remaining % ≤ 80%)”.
With `CC(C)(O)c1cc2nn(C3CCN(Cc4ccnc(C5CCC(=O)NC5=O)c4)CC3)cc2cc1NC(=O)c1cccc(C(F)(F)F)n1` (stereo not shown) [GT-07542, N-(2-(1-((2-(2,6-dioxopiperidin-3-yl)pyridin-4-yl)methyl)piperidin-4-yl)-6-(2-hydroxypropan-2-yl)-2H-indazol-5-yl)-6-(trifluoromethyl)picolinamide], the inhibition at 0.5 µM in experiment [1] (at 0.5µM) was in the range of 30 to 40%. In addition, the inhibition at 2 µM in experiment [1] (at 2 µM) lay within 60 to 80%. Besides, the “Degradation … (substrate protein remaining %)” value in experiment [2] is reported as “A (A is defined as 0% ≤ substrate protein remaining % ≤ 80%)”.
With `CC(C)Nc1cc(-n2ccc3cc(C#N)cnc32)ncc1C(=O)NC1CCN(Cc2cncc(N3CCC(=O)NC3=O)c2)CC1` [GT-07410, 6-(5-cyano-1H-pyrrolo[2,3-b]pyridin-1-yl)-N-(1-((5-(2,4-dioxotetrahydropyrimidin-1(2H)-yl)pyridin-3-yl)methyl)piperidin-4-yl)-4-(isopropylamino)nicotinamide], the “Degradation … (substrate protein remaining %)” value in experiment [2] was “A (A is defined as 0% ≤ substrate protein remaining % ≤ 80%)”.
